Laboratory results reported in patent US7321059B2, “Compounds for use as surfactants” (Glaxo Group Limited, priority 2001, dated 2008).

Tests used:
[1] = Content uniformity by dose through use testing of salmeterol xinafoate HFA 134a MDI formulations; type: physicochemical; settings: salmeterol xinafoate 25 mcg per actuation in HFA 134a
Procedure: Salmeterol xinafoate formulations in HFA 134a, of strength 25 mcg per actuation, and 10% w/w (relative to drug) of the relevant surfactant compound of formula (I) (i.e. Example 3 or Example 4) prepared in aluminum cans with a crimped cap containing a metering valve using salmeterol xinafoate (8.7 mg), HFA 134a (18 g) and the relevant compound (0.87 mg). The control was prepared without the addition of a surfactant. The content uniformity of the formulations was assessed by dose through use testing. Testing was performed on a set of 10 cans/inhalers for each of the formulations, at “beginning of use” (BoU) and “end of use” (EoU). After each inhaler had been primed (4 shots fired to waste), actuations 1 and 2 (BoU) were collected. The next 116 actuations of each inhaler were then fired to waste using an automated method and actuations 119 and 120 (EoU) collected.
In the control there was a rise from beginning to end of use of 5.6 mcg. However, in the presence of the said surfactant compound this rise was reduced to 1.4 mcg for formulations incorporating a compound of Example 3 and 2.8 mcg for formulations incorporating a compound of Example 4. There was also a reduction in the percentage RSD at BoU for the formulations incorporating said surfactant compounds, thereby showing improved can to can reproducibility. Furthermore, there was also a reduction in the percentage RSD at EoU for the formulations incorporating Example 4. The presence of the said surfactants therefore improves the content uniformity of the inhaler.

[2] = Deposition of drug on valve and can of salmeterol xinafoate HFA 134a MDI formulations (HPLC); type: physicochemical; settings: salmeterol xinafoate 1.50 mg in HFA 134a 3 g, surfactant 0.15 mg (10% w/w relative to drug)
Procedure: Salmeterol xinafoate formulations in HFA 134a, strength 25 mcg per dose for each of 60 actuations, and 10% w/w (relative to drug) of the relevant surfactant compound of formula (I) (i.e. Example 3 or Example 4) were prepared in aluminum cans with a crimped cap containing a metering valve using salmeterol xinafoate (1.50 mg), HFA 134a (3 g) and the relevant compound (0.15 mg). The control was prepared without the addition of a surfactant.
Cans containing the said formulations for analysis were cooled to […] to liquefy the propellant therein. These were then opened and the contents collected in a vessel. The valve and the empty can were quantitatively washed. The washings for each component were kept separate. The amount of drug in: the contents removed from the can, the valve washings and the can washing was quantified by HPLC analysis.
Therefore, the presence of said surfactants in formulations seems to reduce the deposition of the drug on the can and valve.

BoU Dose % RSD ([1]; can to can reproducibility at beginning of use, 10% w/w surfactant, 10 cans): 0.7%
EoU Dose % RSD ([1]; can to can reproducibility at end of use, 10% w/w surfactant, 10 cans): 13.9%
EoU − BoU (rise in dose from beginning to end of use) ([1]; 10% w/w surfactant relative to drug): 1.4 µg
BoU Dose ([1]; 10% w/w surfactant relative to drug, beginning of use, actuations 1 and 2, 10 cans): 15.8 µg
EoU Dose ([1]; 10% w/w surfactant relative to drug, end of use, actuations 119 and 120, 10 cans): 17.2 µg
Can Deposition ([2]; aluminum can): 0.25 mg
Valve Deposition ([2]; aluminum can): 0.33 mg
Drug Content In Can ([2]; contents removed from can): 0.56 mg
SMILES: COCCOCCOCCOCCCOCC(OCCCOCCOCCOCCOC)C(=O)O (centres unmarked) [Example 3, 17-(4,7,10,13-Tetraoxatetradec-1-yloxy)-2,5,8,11,15-pentaoxaoctadecan-18-oic acid]
